Where two headings read alike, the source gives them in different places. *1 amine or outer side, *2 acyl side, *3 side chain or, on linkers, in order; H or OH if unused. Where a SMILES comes first, the peptide text is derived from it. Side-chain parts run from the residue outwards. [ ]: non-standard residue; d: D form. The star is where a group is joined. PEG24 = NCCOCCOCCOCCOCCOCCOCCOCCOCCOCCOCCOCCOCCOCCOCCOCCOCCOCCOCCOCCOCCOCCOCCOCCOCCC(=O)O; Bip(2'-Et-4'-O(CH2)4NH2) = CCc1cc(OCCCCN[*:3])ccc1-c1ccc(C[C@H](N[*:1])C(=O)[*:2])cc1; Bip(2'-Et,4'-O(CH2)4NH2) = CCc1cc(OCCCCN)ccc1-c1ccc(C[C@H](N)C(=O)O)cc1; Malonyl(2,2-Me2,histaminyl) = CC(C)(C(=O)NCCc1cnc[nH]1)C(=O)*; PEG12 = NCCOCCOCCOCCOCCOCCOCCOCCOCCOCCOCCOCCOCCC(=O)O; Nva(5-(3,5-Me2Ph)) = Cc1cc(C)cc(CCC[C@H](N)C(=O)O)c1; Ala(1H-tetrazol-5-yl) = N[C@@H](Cc1nnn[nH]1)C(=O)O; αMePhe(2-F) = C[C@](N)(Cc1ccccc1F)C(=O)O; X9 = O=C([C@@H]1CCN(CCc2cnc[nH]2)C1)*; DBCO = C1#Cc2ccccc2N(*)Cc2ccccc21; Suc = O=C(CCC(=O)[*:2])[*:1]; X1 = O=C(CCCCCc1cnc[nH]1)*; X2 = CC(C)(C(N)=O)C(=O)*
How the values were obtained:
[1] = system: HEK293/CRE-Luc cells; experiment: Luciferase reporter assay, HEK293/CRE-Luc cells without GLP1R (Example 17); format: cell-based, human
Description: (§1) To test the activity of GLP1R agonist payloads, GLP1R agonist linker-payloads (LPs), and anti-GLP1R antibody tethered drug conjugates (ATDCs) of the invention, a cell-based cAMP responsive luciferase reporter assay was developed. To generate the assay cell line, the firefly luciferase gene was placed under the control of a cAMP response element (CRE) located upstream of a minimal promoter and transfected into HEK293 cells and referred to herein as HEK293/CRE-Luc cells.
(§2) Three-fold serial dilutions of free payloads or LPs were prepared in 100% DMSO, transferred to fresh assay media, and added to the cells at a final constant DMSO concentration of 0.2%. The last well in the plate served as a blank control containing only the assay media and 0.2% DMSO (untreated well) and was plotted as a continuation of the 3-fold serial dilution. Four to six hours later, luciferase activity was determined after the addition of One-Glo™ reagent (Promega, Cat #E6130) to each well. Relative light units (RLUs) were measured on an Envision luminometer (PerkinElmer) and EC50 values were determined using a four-parameter logistic equation over a 12-point dose response curve (GraphPad Prism). The signal to noise (S/N) was determined by taking the ratio of the highest RLU on the dose response curve to the RLU in the untreated wells. Data was generated across several experiments (A-E) with M2361 serving as a reference standard in each experiment to calculate the payload relative potency ((M2361 EC50/payload EC50)*100)) and relative S/N ((payload SN/M2361 SN)*100)).

[2] = target: human GLP1R (Homo sapiens, UniProt P43220); experiment: Luciferase reporter assay, HEK293/CRE-Luc/hGLP1R (Example 17); format: cell-based; set-up: engineered to express full-length human GLP1R, cynomolgus GLP1R; expressed in transfected cells; host or cells: HEK293/CRE-Luc; conditions: for S/N: highest RLU / RLU of untreated wells; for Relative Potency (% M2361 EC50) / Relative Signal:Noise (% M2361): relative to M2361 of the same experiment
Description: as §1, §2

[3] = HEK293/CRE-Luc cells without hGLP1R, payloads and linker-payloads
[4] = HEK293/CRE-Luc cells without hGLP1R, payloads and linker-payloads, read-out: EC50
[5] = Table 28, reporter cells without GLP1R, read-out: HEK293/CRE-Luc EC50
[6] = Table 29, reporter cells without GLP1R, read-out: HEK293/CRE-Luc EC50
[7] = HEK293/CRE-Luc/hGLP1R, payloads and linker-payloads, experiments A-E, M2361 repeated in each, read-out: EC50

Chain of human GLP1R (P43220 24-463): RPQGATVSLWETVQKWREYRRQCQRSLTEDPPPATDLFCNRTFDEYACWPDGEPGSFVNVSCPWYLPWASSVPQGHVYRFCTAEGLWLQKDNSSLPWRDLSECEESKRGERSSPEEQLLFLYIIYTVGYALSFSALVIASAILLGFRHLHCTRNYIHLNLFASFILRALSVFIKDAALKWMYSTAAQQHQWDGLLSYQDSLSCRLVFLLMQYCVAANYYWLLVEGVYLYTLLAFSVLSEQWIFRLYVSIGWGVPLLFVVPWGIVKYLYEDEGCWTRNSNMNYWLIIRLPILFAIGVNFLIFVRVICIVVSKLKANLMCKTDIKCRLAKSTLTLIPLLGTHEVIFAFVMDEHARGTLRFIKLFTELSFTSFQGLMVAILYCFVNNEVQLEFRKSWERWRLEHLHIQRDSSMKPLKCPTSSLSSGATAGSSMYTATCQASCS

CCc1cc(OCCCCN)ccc1-c1ccc(C[C@H](NC(=O)[C@H](CC(=O)O)NC(=O)[C@H](CO)NC(=O)[C@@H](NC(=O)[C@](C)(Cc2ccccc2F)NC(=O)[C@@H](NC(=O)CNC(=O)[C@H](Cc2nn[nH]n2)NC(=O)[C@@]2(C)CCN(CCc3cnc[nH]3)C2=O)[C@@H](C)O)[C@@H](C)O)C(=O)N[C@@H](CCCc2cc(C)cc(C)c2)C(N)=O)cc1 [P15]
S/N [1, 3]: 1.1
EC50 [1, 4]: > 200 nM
S/N ([2]; HEK293/CRE-Luc/hGLP1R): 67.8
Relative Potency (% M2361 EC50) ([2]; HEK293/CRE-Luc/hGLP1R): 40.3%
Relative Signal:Noise (% M2361) ([2]; HEK293/CRE-Luc/hGLP1R): 103.1%

GLP2 [reference compound]
EC50 [1, 5]: > 200 nM
EC50 [1, 6]: > 30 nM

CCc1cc(OCCCCN)ccc1-c1ccc(C[C@H](NC(=O)[C@H](CC(=O)O)NC(=O)[C@H](CO)NC(=O)[C@@H](NC(=O)[C@](C)(Cc2ccccc2F)NC(=O)[C@@H](NC(=O)CNC(=O)[C@H](Cc2nn[nH]n2)NC(=O)[C@@H]2CCN(CCc3cnc[nH]3)C2)[C@@H](C)O)[C@@H](C)O)C(=O)N[C@@H](CCCc2cc(C)cc(C)c2)C(N)=O)cc1 [P17] (X9-[Ala(1H-tetrazol-5-yl)]GT[αMePhe(2-F)]TSD[Bip(2'-Et,4'-O(CH2)4NH2)][Nva(5-(3,5-Me2Ph))]-NH2)
S/N [1, 3]: 1.0
EC50 [1, 4]: > 200 nM

CCc1cc(OCCCCNC(=O)[C@H](CO)NC(=O)CNC(=O)CNC(=O)CNC(=O)CNC(=O)CCC(=O)N2Cc3ccccc3C#Cc3ccccc32)ccc1-c1ccc(C[C@H](NC(=O)[C@H](CC(=O)O)NC(=O)[C@H](CO)NC(=O)[C@@H](NC(=O)[C@](C)(Cc2ccccc2F)NC(=O)[C@@H](NC(=O)CNC(=O)[C@H](Cc2nn[nH]n2)NC(=O)C(C)(C)C(N)=O)[C@@H](C)O)[C@@H](C)O)C(=O)N[C@@H](CCCc2cc(C)cc(C)c2)C(N)=O)cc1 [LP14, DIBAC- suc-G4S- P4]
S/N [1, 3]: 1.3
EC50 [1, 4]: > 20 nM
S/N ([2]; HEK293/CRE-Luc/hGLP1R): 78.1
EC50 [2, 7]: 0.366 nM
Relative Potency (% M2361 EC50) ([2]; HEK293/CRE-Luc/hGLP1R): 2.2%
Relative Signal:Noise (% M2361) ([2]; HEK293/CRE-Luc/hGLP1R): 108.6%

CCc1cc(OCCCCNC(=O)CCOCCOCCOCCOCCOCCOCCOCCOCCOCCOCCOCCOCCOCCOCCOCCOCCOCCOCCOCCOCCOCCOCCOCCOCCNC(=O)CCC(=O)N2Cc3ccccc3C#Cc3ccccc32)ccc1-c1ccc(C[C@H](NC(=O)[C@H](CC(=O)O)NC(=O)[C@H](CO)NC(=O)[C@@H](NC(=O)[C@](C)(Cc2ccccc2F)NC(=O)[C@@H](NC(=O)CNC(=O)[C@H](Cc2nn[nH]n2)NC(=O)C(C)(C)C(N)=O)[C@@H](C)O)[C@@H](C)O)C(=O)N[C@@H](CCCc2cc(C)cc(C)c2)C(N)=O)cc1 [LP13, DIBAC-suc-PEG24-P4] (X2-[Ala(1H-tetrazol-5-yl)]GT[αMePhe(2-F)]TSD[Bip(2'-Et-4'-O(CH2)4NH2)]([PEG24-Suc-DBCO])[Nva(5-(3,5-Me2Ph))]-NH2)
S/N [1, 3]: 1.3
EC50 [1, 4]: > 20 nM
S/N ([2]; HEK293/CRE-Luc/hGLP1R): 79.3
EC50 [2, 7]: 4.83 nM
Relative Potency (% M2361 EC50) ([2]; HEK293/CRE-Luc/hGLP1R): 0.2%
Relative Signal:Noise (% M2361) ([2]; HEK293/CRE-Luc/hGLP1R): 110.2%

CCc1cc(OCCCCNC(=O)[C@H](CO)NC(=O)CNC(=O)CNC(=O)CNC(=O)CNC(=O)C(CO)NC(=O)CNC(=O)CNC(=O)CNC(=O)CN)ccc1-c1ccc(C[C@H](NC(=O)[C@H](CC(=O)O)NC(=O)[C@H](CO)NC(=O)[C@@H](NC(=O)[C@](C)(Cc2ccccc2F)NC(=O)[C@@H](NC(=O)CNC(=O)[C@H](Cc2nn[nH]n2)NC(=O)C(C)(C)C(=O)NCCc2cnc[nH]2)[C@@H](C)O)[C@@H](C)O)C(=O)N[C@@H](CCCc2cc(C)cc(C)c2)C(N)=O)cc1 (stereo partly drawn) [M2945]
S/N [1, 3]: 1.4
EC50 [1, 4]: > 20 nM
S/N ([2]; HEK293/CRE-Luc/hGLP1R): 71.8
EC50 [2, 7]: 0.0255 nM
Relative Potency (% M2361 EC50) ([2]; HEK293/CRE-Luc/hGLP1R): 31.4%
Relative Signal:Noise (% M2361) ([2]; HEK293/CRE-Luc/hGLP1R): 99.9%

CCc1cc(OCCCCNC(=O)CCOCCOCCOCCOCCOCCOCCOCCOCCOCCOCCOCCOCCOCCOCCOCCOCCOCCOCCOCCOCCOCCOCCOCCOCCNC(=O)CCC(=O)N2Cc3ccccc3C#Cc3ccccc32)ccc1-c1ccc(C[C@H](NC(=O)[C@H](CC(=O)O)NC(=O)[C@H](CO)NC(=O)[C@@H](NC(=O)[C@](C)(Cc2ccccc2F)NC(=O)[C@@H](NC(=O)CNC(=O)[C@H](Cc2nn[nH]n2)NC(=O)CCCCCc2cnc[nH]2)[C@@H](C)O)[C@@H](C)O)C(=O)N[C@@H](CCCc2cc(C)cc(C)c2)C(N)=O)cc1 [M2944] (X1-[Ala(1H-tetrazol-5-yl)]GT[αMePhe(2-F)]TSD[Bip(2'-Et-4'-O(CH2)4NH2)]([PEG24-Suc-DBCO])[Nva(5-(3,5-Me2Ph))]-NH2)
EC50 [2, 7]: > 20 nM
EC50 ([2]; text b1830, read-out: EC50 in HEK293/CRE-Luc/hGLP1R cells): > 20 nM

CCc1cc(OCCCCNC(=O)[C@H](CO)NC(=O)CNC(=O)CNC(=O)CNC(=O)CNC(=O)[C@H](CO)NC(=O)CNC(=O)CNC(=O)CNC(=O)CNC(=O)CCC(=O)N2Cc3ccccc3C#Cc3ccccc32)ccc1-c1ccc(C[C@H](NC(=O)[C@H](CC(=O)O)NC(=O)[C@H](CO)NC(=O)[C@@H](NC(=O)[C@](C)(Cc2ccccc2F)NC(=O)[C@@H](NC(=O)CNC(=O)[C@H](Cc2nn[nH]n2)NC(=O)C(C)(C)C(=O)NCCc2cnc[nH]2)[C@@H](C)O)[C@@H](C)O)C(=O)N[C@@H](CCCc2cc(C)cc(C)c2)C(N)=O)cc1 [LP17, DIBAC- suc-G4S- G4S-P9]
S/N ([2]; HEK293/CRE-Luc/hGLP1R): 258.0
EC50 [2, 7]: 0.0542 nM
Relative Potency (% M2361 EC50) ([2]; HEK293/CRE-Luc/hGLP1R): 50.4%
Relative Signal:Noise (% M2361) ([2]; HEK293/CRE-Luc/hGLP1R): 109.4%

CCc1cc(OCCCCNC(=O)[C@H](CO)NC(=O)CNC(=O)CNC(=O)CNC(=O)CN)ccc1-c1ccc(C[C@H](NC(=O)[C@H](CC(=O)O)NC(=O)[C@H](CO)NC(=O)[C@@H](NC(=O)[C@](C)(Cc2ccccc2F)NC(=O)[C@@H](NC(=O)CNC(=O)[C@H](Cc2nn[nH]n2)NC(=O)C(C)(C)C(=O)NCCc2cnc[nH]2)[C@@H](C)O)[C@@H](C)O)C(=O)N[C@@H](CCCc2cc(C)cc(C)c2)C(N)=O)cc1 [M2739, G4S-P9]
S/N ([2]; HEK293/CRE-Luc/hGLP1R): 282.1
EC50 [2, 7]: 0.01 nM
Relative Potency (% M2361 EC50) ([2]; HEK293/CRE-Luc/hGLP1R): 193.4%
Relative Signal:Noise (% M2361) ([2]; HEK293/CRE-Luc/hGLP1R): 86.0%

GIP [reference compound]
EC50 [1, 5]: > 200 nM
EC50 [1, 6]: > 30 nM

GCG [reference compound]
EC50 [1, 5]: > 200 nM
EC50 [1, 6]: > 30 nM

CCc1cc(OCCCCNC(=O)CCOCCOCCOCCOCCOCCOCCOCCOCCOCCOCCOCCOCCNC(=O)CCC(=O)N2Cc3ccccc3C#Cc3ccccc32)ccc1-c1ccc(C[C@H](NC(=O)[C@H](CC(=O)O)NC(=O)[C@H](CO)NC(=O)[C@@H](NC(=O)[C@](C)(Cc2ccccc2F)NC(=O)[C@@H](NC(=O)CNC(=O)[C@H](Cc2nn[nH]n2)NC(=O)C(C)(C)C(=O)NCCc2cnc[nH]2)[C@@H](C)O)[C@@H](C)O)C(=O)N[C@@H](CCCc2cc(C)cc(C)c2)C(N)=O)cc1 [LP3, DIBAC-suc-PEG12-P9] ({Malonyl(2,2-Me2,histaminyl)}-[Ala(1H-tetrazol-5-yl)]GT[αMePhe(2-F)]TSD[Bip(2'-Et-4'-O(CH2)4NH2)]([PEG12-Suc-DBCO])[Nva(5-(3,5-Me2Ph))]-NH2)
S/N ([2]; HEK293/CRE-Luc/hGLP1R): 293.2
EC50 [2, 7]: 0.0976 nM
Relative Potency (% M2361 EC50) ([2]; HEK293/CRE-Luc/hGLP1R): 28.0%
Relative Signal:Noise (% M2361) ([2]; HEK293/CRE-Luc/hGLP1R): 124.3%

CCc1cc(OCCCCNC(=O)CCOCCOCCOCCOCCOCCOCCOCCOCCOCCOCCOCCOCCOCCOCCOCCOCCOCCOCCOCCOCCOCCOCCOCCOCCNC(=O)CCC(=O)N2Cc3ccccc3-c3nn[nH]c3-c3ccccc32)ccc1-c1ccc(C[C@H](NC(=O)[C@H](CC(=O)O)NC(=O)[C@H](CO)NC(=O)[C@@H](NC(=O)[C@](C)(Cc2ccccc2F)NC(=O)[C@@H](NC(=O)CNC(=O)[C@H](Cc2nn[nH]n2)NC(=O)C(C)(C)C(=O)NCCc2cnc[nH]2)[C@@H](C)O)[C@@H](C)O)C(=O)N[C@@H](CCCc2cc(C)cc(C)c2)C(C)=O)cc1 [M2547]
S/N ([2]; HEK293/CRE-Luc/hGLP1R): 267.8
Relative Potency (% M2361 EC50) ([2]; HEK293/CRE-Luc/hGLP1R): 38.6%
Relative Signal:Noise (% M2361) ([2]; HEK293/CRE-Luc/hGLP1R): 81.7%
